US20170362228A1, “TETRAHYDRO-PYRIDO[3,4-b]INDOLE ESTROGEN RECEPTOR MODULATORS AND USES THEREOF” (Genentech, Inc., priority 2016, published 2017)
pEC50: −log10 of the molar value. Where two headings read alike, the source gives them in different places.

Legend:
[1] = target: T1, estrogen receptor alpha (ESR1) (Homo sapiens, UniProt P03372); test: Breast Cancer Cell ERa High Content Fluorescence Imaging Degradation Assay (Example 901); assay type: cell-based; conditions: Table 1a; MCF7 breast cancer cells, 4 hours; plateau of the maximal effect; DMSO and Fulvestrant define 0% and 100% changes in ESR1
T1 construct: endogenous in cells; host or cells: MCF7 breast cancer cells
T1 sequence (P03372 1-595): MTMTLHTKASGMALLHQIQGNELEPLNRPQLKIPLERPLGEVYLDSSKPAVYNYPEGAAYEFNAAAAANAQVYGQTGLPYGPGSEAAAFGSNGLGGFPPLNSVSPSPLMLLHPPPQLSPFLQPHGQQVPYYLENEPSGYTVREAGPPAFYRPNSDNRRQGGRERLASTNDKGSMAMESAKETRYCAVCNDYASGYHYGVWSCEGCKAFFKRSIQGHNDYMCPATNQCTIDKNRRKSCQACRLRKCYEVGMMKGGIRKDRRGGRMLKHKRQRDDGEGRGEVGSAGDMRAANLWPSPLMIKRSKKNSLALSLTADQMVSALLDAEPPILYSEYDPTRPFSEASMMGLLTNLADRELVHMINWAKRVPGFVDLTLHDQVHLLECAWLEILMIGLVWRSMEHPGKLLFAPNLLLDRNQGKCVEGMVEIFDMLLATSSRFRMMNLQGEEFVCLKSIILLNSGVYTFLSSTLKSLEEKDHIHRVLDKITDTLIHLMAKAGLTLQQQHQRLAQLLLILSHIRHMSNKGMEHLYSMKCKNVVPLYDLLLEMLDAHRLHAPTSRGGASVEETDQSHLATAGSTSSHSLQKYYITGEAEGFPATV
Method: MCF7 breast cancer cells were seeded on day 1 at a density of 10,000 cells per well in 384 well poly-lysine coated tissue culture plate (Greiner # T-3101-4), in 50 μL/well RPMI (phenol red free), 10% FBS (Charcoal stripped), containing L-glutamine. On day 2, compounds were prepared at 2 compound source concentrations: 100 μM and 1 μM (ultimately to give 2 overlapping titration curves), in a Labcyte low dead volume plate, 10 μL/well, and 10 μL of DMSO in designated wells for backfill, and 5 μM Fulvestrant (control compound) in designated wells. Compounds and controls were dispensed using a Labcyte Echo acoustic dispenser to dispense compounds with a predefined serial dilution (1.8×, 10 point, in duplicate) and appropriate backfill and control compounds (final total volume transferred was 417.5 nL and compound dispense volume ranges from 2.5 nL to 417.5 nL; 0.84% DMSO (v/v) final), ultimately producing a concentration range from 0.05 nM to 835 nM. Cell plates were incubated at 37° C., for 4 hours. Fixation and permeabilization were carried out using a Biotek EL406 plate washer and dispenser as follows. Cells were fixed by addition of 15 μL of 16% paraformaldehyde (Electron Microscopy Sciences #15710-S) directly to the 50 μL cell culture medium in each well using the peristaltic pump 5 μL cassette on a Biotek EL406 (final concentration of formaldehyde was 3.7% w/v). Samples were incubated 30 minutes. Well contents was aspirated and 50 μL/well of Phosphate Buffered Saline (PBS) containing 0.5% w/v bovine serum albumen, 0.5% v/v Triton X-100 (Antibody Dilution Buffer) was added to each well. Samples were incubated for 30 minutes. Well contents were aspirated and washed 3 times with 100 μL/well of PBS. Immunofluorescence staining of estrogen receptor alpha (ESR1) was carried out using a Biotek EL406 plate washer and dispenser as follows. The well supernatant was aspirated from the wells and 25 μL/well of anti-ESR1 mAb (F10) (Santa Cruz sc-8002) diluted 1:1000 in Antibody Dilution Buffer was dispensed. Samples were incubated for 2 hours at room temperature. Samples were washed 4 times with 100 μL/well of PBS. 25 uL/well of secondary antibody solution (Alexafluor 488 conjugate anti-mouse IgG (LifeTechnologies #A21202) diluted 1:1000 and Hoechst 33342 1 μg/ml diluted in Antibody Dilution Buffer) were dispensed into each well. Samples were incubated for 2 hours at room temperature. Samples were washed 3 times with 100 μL/well of PBS using a Biotek EL406. Quantitative fluorescence imaging of ESR1 was carried out using a Cellomics Arrayscan V (Thermo). Fluorescence images of the samples (Channel 1: XF53 Hoechst (DNA stain); Channel 2: XF53 FITC (ESR1 stain)) were acquired using a Cellomics VTI Arrayscan using the Bioapplication “Compartmental Analysis” using the auto-exposure (based on DMSO control wells) setting “peak target percentile” set to 25% target saturation for both channels. Channel 1 (DNA stain) was used to define the nuclear region (Circ). Measurements of “Mean_CircAvgIntCh2”, which is the Alexafluor 488 fluorescence intensity (ESR1) within the nuclear region, was measured on a per cell basis and averaged over all the measured cells. Data analysis was carried out using Genedata Screener Software, with DMSO and 5 nM Fulvestrant treated samples being used to define the 0% and 100% changes in ESR1. The “Robust Fit” method was used to define the inflexion point of curve (EC50) and the plateau of the maximal effect (Sinf). Degradation data for exemplary Formula I compounds is reported as ER-alpha MCF7 HCS Sinf(%) values in Table 1.

MCF7 cells = test: In vitro cell proliferation assays (Examples 902 and 903), MCF7; assay type: cell-based; conditions: Homo sapiens
Method: Efficacy of estrogen receptor modulator compounds and chemotherapeutic compounds are measured by a cell proliferation assay employing the following protocol (Mendoza et al (2002) Cancer Res. 62:5485-5488).
The CellTiter-Glo® Luminescent Cell Viability Assay is a homogeneous method to determine the number of viable cells in culture based on quantitation of the ATP present, which signals the presence of metabolically active cells. The CellTiter-Glo® Assay is designed for use with multiwell plate formats, making it ideal for automated high-throughput screening (HTS), cell proliferation and cytotoxicity assays. The homogeneous assay procedure involves adding a single reagent (CellTiter-Glo® Reagent) directly to cells cultured in serum-supplemented medium. Cell washing, removal of medium or multiple pipetting steps are not required. The Cell Titer-Glo® Luminescent Cell Viability Assay, including reagents and protocol are commercially available (Promega Corp., Madison, Wis., Technical Bulletin TB288).
The assay assesses the ability of compounds to enter cells and inhibit cell proliferation. The assay principle is based on the determination of the number of viable cells present by quantitating the ATP present in a homogenous assay where addition of the Cell TiterGlo® reagent results in cell lysis and generation of a luminescent signal through the luciferase reaction. The luminescent signal is proportional to the amount of ATP present.
Procedure: Day 1—Seed Cell Plates (384-well black, clear bottom, microclear, TC plates with lid from Falcon #353962), Harvest cells, Seed cells at 1000 cells per 54 μl per well into 384 well Cell Plates for 3 days assay. Cell Culture Medium: RPMI or DMEM high glucose, 10% Fetal Bovine Serum, 2 mM L-Glutamine, P/S. Incubate 0/N (overnight) at 37° C., 5% CO2.
Day 2—Add Drug to Cells, Compound Dilution, DMSO Plates (serial 1:2 for 9 points). Add 20 μl of compound at 10 mM in the 2nd column of 96 well plate. Perform serial 1:2 across the plate (10 μl+20 μl 100% DMSO) for a total of 9 points using Precision Media Plates 96-well conical bottom polypropylene plates from Nunc (cat.#249946) (1:50 dilution). Add 147 μl of Media into all wells. Transfer 3 μl of DMSO+compound from each well in the DMSO Plate to each corresponding well on Media Plate using Rapidplate® (Caliper, a Perkin-Elmer Co.). For 2 drug combination studies, transfer one drug 1.5 μl of DMSO+compound from each well in the DMSO Plate to each corresponding well on Media Plate using Rapidplate. Then, transfer another drug 1.5 μl to the medium plate.
Drug Addition to Cells, Cell Plate (1:10 dilution): Add 6 μl of media+compound directly to cells (54 μl of media on the cells already). Incubate 3 days at 37° C., 5% CO2 in an incubator that will not be opened often.
Day 5—Develop Plates, Thaw Cell Titer Glo Buffer at room temperature: Remove Cell Plates from 37° C. and equilibrate to room temperature for about 30 minutes. Add Cell Titer-Glo® Buffer to Cell Titer-Glo® Substrate (bottle to bottle). Add 30 μl Cell Titer-Glo® Reagent (Promega cat.# G7572) to each well of cells. Place on plate shaker for about 30 minutes. Read luminescence on Analyst HT Plate Reader (half second per well).
Cell viability assays and combination assays: Cells were seeded at 1000-2000 cells/well in 384-well plates for 16 h. On day two, nine serial 1:2 compound dilutions were made in DMSO in a 96 well plate. The compounds were further diluted into growth media using a Rapidplate® robot (Zymark Corp., Hopkinton, Mass.). The diluted compounds were then added to quadruplicate wells in 384-well cell plates and incubated at 37° C. and 5% CO2. After 4 days, relative numbers of viable cells were measured by luminescence using Cell Titer-Glo® (Promega) according to the manufacturer's instructions and read on a Wallac Multilabel Reader® (PerkinElmer, Foster City). EC50 values were calculated using Prism® 4.0 software (GraphPad, San Diego). […]

[2] = MCF7, Table 1a, read-out: ER-alpha MCF7 HCS (EC50)
[3] = MCF7, Table 2, Comparator compounds, read-out: ER-alpha MCF7 HCS EC50

For `C[C@@H]1Cc2c([nH]c3ccccc23)[C@@H](c2c(F)cc([C@@H](F)C3CN(CCCF)C3)cc2F)N1CC(F)(F)CO` (single isomer, unassigned) [Compound 104], which “ER-alpha MCF7 HCS (S inf)” value [1] is on record?
Its value is −99.99%.

And the pEC50 (MCF7 cells; [2])?
Its pEC50 is 10.77.

With `C[C@@H]1Cc2c([nH]c3ccccc23)[C@@H](c2c(F)cc([C@H](F)C3CN(CCCF)C3)cc2F)N1CC(F)(F)CO` (single isomer, unassigned) [Compound 105] as the compound, how does the “ER-alpha MCF7 HCS (S inf)” value [1] read?
The value was −97.71%.

And the pEC50 (MCF7 cells; [2])?
Its pEC50 is 10.68.

For `C[C@@H]1Cc2c([nH]c3ccc(F)cc23)[C@@H](c2c(F)cc([C@H](O)C3CN(CCCF)C3)cc2F)N1CC(F)(F)CO` (single isomer, unassigned) [Compound 114], which “ER-alpha MCF7 HCS (S inf)” value [1] is on record?
Its value is −100.60%.

And the pEC50 (MCF7 cells; [2])?
The pEC50 was 10.46.

How did the “ER-alpha MCF7 HCS (S inf)” value [1] turn out when `C[C@@H]1Cc2c([nH]c3ccc(F)cc23)[C@@H](c2c(F)cc([C@@H](O)C3CN(CCCF)C3)cc2F)N1CC(F)(F)CO` (single isomer, unassigned) [Compound 115] was run?
Its value is −100.58%.

And the pEC50 (MCF7 cells; [2])?
Its pEC50 is 10.19.

How did the “ER-alpha MCF7 HCS (S inf)” value [1] turn out when `C[C@@H]1Cc2c([nH]c3ccccc23)[C@@H](c2c(F)cc([C@H](O)C3CN(CCCF)C3)cc2F)N1CC(F)F` (single isomer, unassigned) [Compound 121] was run?
The value was −98.21%.

And the pEC50 (MCF7 cells; [2])?
Its pEC50 is 10.17.

What does the source list for `C[C@@H]1Cc2c([nH]c3ccccc23)[C@@H](c2c(F)cc([C@@H](O)C3CN(CCCF)C3)cc2F)N1CC(F)F` (single isomer, unassigned) [Compound 122]?
ER-alpha MCF7 HCS (S inf) [1]: −98.05%; pEC50 (MCF7 cells; [2]): 10.46

How did the “ER-alpha MCF7 HCS (S inf)” value [1] turn out when `C[C@H]1Cc2c([nH]c3c(F)cccc23)[C@H](c2c(F)cc([C@H](O)C3CN(CCCF)C3)cc2F)N1CC(F)(F)CO` (single isomer, unassigned) [Compound 131] was run?
The value was −95.59%.

And the pEC50 (MCF7 cells; [2])?
Its pEC50 is 8.12.

How did the “ER-alpha MCF7 HCS (S inf)” value [1] turn out when `C[C@H]1Cc2c([nH]c3c(F)cccc23)[C@H](c2c(F)cc([C@@H](O)C3CN(CCCF)C3)cc2F)N1CC(F)(F)CO` (single isomer, unassigned) [Compound 132] was run?
The value was −91%.

What about the pEC50 (MCF7 cells; [2]) of the same compound?
Its pEC50 is 8.01.

How did the pEC50 (MCF7 cells; [2]) turn out when `C[C@@H]1Cc2c([nH]c3ccccc23)[C@@H](c2c(F)cc([C@@H](O)C3CN(CCCF)C3)cc2F)N1C[C@H](F)CO` (single isomer, unassigned) [Compound 139] was run?
Its pEC50 is 9.51.

With `C[C@@H]1Cc2c([nH]c3ccccc23)[C@@H](c2c(F)cc(NC3CN(CCCF)C3)cc2F)N1CC(F)(F)CO` [Comparator compound A, 3-[(1R,3R)-1-[2,6-difluoro-4-[[1-(3-fluoropropyl)azetidin-3-yl]amino]phenyl]-3-methyl-1,3,4,9-tetrahydropyrido[3,4-b]indol-2-yl]-2,2-difluoro-propan-1-ol, reference compound] as the compound, how does the pEC50 (MCF7 cells; [3]) read?
The pEC50 was 10.57.

How did the pEC50 (MCF7 cells; [3]) turn out when `C[C@@H]1Cc2c([nH]c3ccccc23)[C@@H](c2ccc([C@@H](O)C3CN(CCCF)C3)cc2)N1CC(C)(C)F` [Comparator compound B, (S)-(4-((1R,3R)-2-(2-fluoro-2-methylpropyl)-3-methyl-2,3,4,9-tetrahydro-1H-pyrido[3,4-b]indol-1-yl)phenyl)(1-(3-fluoropropyl)azetidin-3-yl)methanol, reference compound] was run?
Its pEC50 is 10.19.

`C[C@@H]1Cc2c([nH]c3ccccc23)[C@@H](c2ccc([C@H](O)C3CN(CCCF)C3)cc2)N1CC(C)(C)F` [Comparator compound C, (R)-(4-((1R,3R)-2-(2-fluoro-2-methylpropyl)-3-methyl-2,3,4,9-tetrahydro-1H-pyrido[3,4-b]indol-1-yl)phenyl)(1-(3-fluoropropyl)azetidin-3-yl)methanol, reference compound] was tested. Which pEC50 (MCF7 cells; [3]) did it give?
The pEC50 was 9.92.

How did the pEC50 (MCF7 cells; [2]) turn out when `C[C@@H]1Cc2c([nH]c3ccccc23)[C@@H](c2c(F)cc([C@@H](F)C3CN(CCCF)C3)cc2F)N1CC(C)(C)F` [Compound 102, (1R,3R)-1-(2,6-difluoro-4-((S)-fluoro(1-(3-fluoropropyl)azetidin-3-yl)methyl)phenyl)-2-(2-fluoro-2-methylpropyl)-3-methyl-2,3,4,9-tetrahydro-1H-pyrido[3,4-b]indole] was run?
The pEC50 was 9.86.
